Test results: US20190022117A1, “COMBINATION THERAPY” (NuCana plc, priority 2015, published 2019)
Read-outs that look alike come from different tables or passages of the source.

How the values were obtained:
[1] = ProGem1 clinical study (NUC-1031 alone), plasma pharmacokinetics; type: in vivo, human
Excerpt: ProGem1 was a first-time-in-human (FTIH), phase I, open label, two stage study to investigate the safety, tolerability, clinical efficacy, pharmacokinetics (PK) and pharmacodynamics (PD) of NUC-1031 given in two parallel dosing schedules in subjects with advanced solid malignancies (EudraCT Number: 2011-005232-26). Subjects had the following tumour types at study entry: colorectal cancer (7 subjects), unknown primary (3), ovarian cancer (12), breast cancer (4), pancreatic cancer (9), cholangiocarcinoma (7), endometrial cancer (3), cervical cancer (2), lung cancer (7), mesothelioma (3), oesophageal cancer (3), cancer of the fallopian tube (1), trophoblast (1), renal cancer (1), gastric cancer (1), anal cancer (1), cancer of the thymus (1) and osteosarcoma (1).

SKOV3 cells = assay: Sulforhodamine B (SRB) assay, single agent; type: cell-based; details: 24 hours exposure, SRB assay on day 4
Procedure: SKOV3 cells were purchased from American Type Culture Collection (ATCC). They were cultured at 37° C. and 5% CO2 in Gibco™ RMPI Medium 1640+GlutaMAX™-I (Life Technologies; 61870-010) with 10% Gibco™ FBS (Life Technologies; 10270-106) and 1% Gibco™ Penicillin-Streptomycin (Life Technologies; Ser. No. 15/140,122), known as complete medium, in a cell culture flask. Cisplatin was purchased from TEVA UK Limited (PL 00289/1146). Fluvastatin and Sulforaphane were both purchased from Merck Millipore Corporation (Catalogue numbers 344096 and 574215 respectively). (S)-NUC-1031 was provided by NuCana® Ltd.
SKOV3 cells were plated at 250 cells in 200 μl per well in the middle 60 wells of Costar® 3596 96-well plates, with the outer 36 wells filled with 200 μl PBS each. The cells were allowed to grow in complete medium for 48 hours before different drug compounds were added in. For single agent, cisplatin, (S)-NUC-1031, fluvastatin and sulforaphane in complete medium at 10 different concentrations were added into the middle 60 wells (Day 0). Each concentration was loaded in sextuplicate. Cells were exposed to the compounds for 24 hours and the compounds were replaced by pure complete medium. The experiment with fluvastatin was repeated with 4-day exposure instead of 24 hours. The plates were fixed with 50 μl 25% TCA solution at 4° C. for 60 minutes on day 4 after the drug compounds were added for Sulforhodamine B assay (see below).
After adding the TCA solution, the plates were washed under running tap water 10 times and were allowed to dry in the oven at 50° C. The cells were then stained with 50 μl SRB dye, and the dye was washed off with 1% glacial acetic acid for 4 times 30 minutes after SRB addition. The plates were then dried in the oven. SRB dye was allowed to dissolve in 150 μl 10 mM Tris buffer solution for 60 minutes on a rocker. The plates were read on Biohit BP800 Microplate Reader (Biohit Healthcare) and the absorbance was measured at 540 nm. […]

NCI-H460 = assay: CellTiter-Glo cytotoxicity assay, single agents (Stage 1); type: cell-based; details: CTG assay 72 h; for IC50: Homo sapiens
Procedure: (§1) A2780, SK-OV-3, OVCAR-3, NCI-H460, NCI-H1975, NCI-H2122, 5637 and HT1376 were cultured in RPMI Medium 1640 (Invitrogen-22400105) supplemented with 10% fetal bovine serum (FBS; Invitrogen-10099141). All the cell lines were maintained in a humidified incubator at 37° C. with 5% CO2. Cell culture media and supplements were purchased from Invitrogen, and tissue culture flasks were purchased from Corning, 96-well plates and 384-well plates were purchased from Greiner. CellTiter-Glo Luminescent Cell Viability Assay kits were purchased from Promega (Promega-G7573), cells counter Vi-Cell was purchased from Beckman, detection instrument Envision was purchased from PerkinElmer.
(§2) Paclitaxcel (used as a reference) and cisplatin were purchased from SELLECK, and they were of highest purity available. All compounds attained solubility in DMSO and when diluted into culture media. DMSO, compounds solutions and culture media were warmed to 37° C. for the solution preparation and dilutions.
(§3) Eight cell lines were allowed to adhere to 96-well plates overnight (100 μL/well), for drug treatments with 3.16 fold dilution, 9 dose points, triplicates or vehicle control, compound stock solutions were prepared in DMSO and added to the wells to give the indicated final drug concentrations. Final DMSO concentration was 0.5%. Cellular ATP concentrations were assessed by using the CellTiter-Glo Cell Viability Assay as per the manufacturer's instructions 72 h after drug addition.
(§4) In Stage 1 the IC50 (using 5 or more concentrations) of each individual compound (cisplatin, gemcitabine and NUC-1031) in the relevant cell lines was determined.

OVCAR-3 = assay: as above; type: cell-based; details: CTG assay 72 h; for IC50: Homo sapiens
Procedure: as §1, §2, §3, §4

HT1376 = assay: as above; type: cell-based; details: for IC50: Homo sapiens, HT-1376, CTG assay 72 h
Procedure: as §1, §2, §3, §4

5637 = assay: as above; type: cell-based; details: CTG assay 72 h
Procedure: as §1, §2, §3, §4

A2780 = assay: as above; type: cell-based; details: CTG assay 72 h; for IC50: Homo sapiens
Procedure: as §1, §2, §3, §4

NCI-H1975 = assay: as above; type: cell-based; details: CTG assay 72 h; for IC50: Homo sapiens
Procedure: as §1, §2, §3, §4

SK-OV3 = assay: as above; type: cell-based; details: for IC50: Homo sapiens, SK-OV-3, CTG assay 72 h
Procedure: as §1, §2, §3, §4

[2] = absolute IC50, read-out: Ab IC50

For `C[C@H](NP(=O)(OC[C@H]1O[C@@H](n2ccc(N)nc2=O)C(F)(F)[C@H]1O)Oc1ccccc1)C(=O)OCc1ccccc1` (stereo partly drawn) [NUC-1031, 2′-Deoxy-2′,2′-difluoro-D-cytidine-5′-O-[phenyl (benzoxy-L-alaninyl)] phosphate], the “levels of the metabolite dFdU relative to gemcitabine” value ([1]; ProGem1, compared with levels normally associated with gemcitabine) was “less than half”, the clearance ([1]; human, plasma, ProGem1 (n = 67), NUC-1031 as a single agent) was 86.7 mL/min and the Cmax ([1]; human, plasma, ProGem1 (n = 67), NUC-1031 as a single agent, no normalisation) was 66.5 µg/mL. For the same molecule, the AUC(0-t) ([1]; human, plasma, ProGem1 (n = 67), NUC-1031 as a single agent, no normalisation, read-out: Mean AUC0-24, plasma NUC-1031) was 66500 ng·h/mL, the half-life ([1]; human, plasma, ProGem1 (n = 67), NUC-1031 as a single agent, read-out: Mean terminal t1/2, plasma NUC-1031 (converted)) was 54 min and the Tmax ([1]; human, plasma, ProGem1 (n = 67), NUC-1031 as a single agent, read-out: Median Tmax, plasma NUC-1031) was 30 min. For the same molecule, the IC50 (SKOV3 cells) was “could not be calculated due to unobservable inhibitory effects”, the “Max Inhibition_%” value (NCI-H460) was 91.98% and the IC50 (NCI-H460; [2]) was 0.04 µM. For the same molecule, the IC50 (NCI-H460; relative IC50, read-out: IC50) was 0.04 µM, the “Max Inhibition_%” value (OVCAR-3) was 11.76% and the IC50 (OVCAR-3; [2]) was > 1.98 µM. The IC50 (OVCAR-3; relative IC50, read-out: IC50) was 0.2 µM, the “Max Inhibition_%” value (HT1376; CTG assay 72 h) was −2.54% and the IC50 (HT1376; [2]) was > 1.98 µM. For the same molecule, the IC50 (HT1376; relative IC50, read-out: IC50) was > 1.98 µM, the “Max Inhibition_%” value 5637 was 77.88% and the IC50 5637; [2] was 0.2 µM. For the same molecule, the IC50 (5637; relative IC50, read-out: IC50) was 0.12 µM, the “Max Inhibition_%” value (A2780) was 79.15% and the IC50 (A2780; [2]) was 0.025 µM. For the same molecule, the IC50 (A2780; relative IC50, read-out: IC50) was 0.016 µM, the “Max Inhibition_%” value (NCI-H1975) was 37.91% and the IC50 (NCI-H1975; [2]) was > 1.98 µM. For the same molecule, the IC50 (NCI-H1975; relative IC50, read-out: IC50) was 0.37 µM, the “Max Inhibition_%” value (SK-OV3; CTG assay 72 h) was 61.59% and the IC50 (SK-OV3; [2]) was 0.07 µM. The IC50 (SK-OV3; relative IC50, read-out: IC50) was 0.06 µM.
